Reference: patent US12662479B2 (Foghorn Therapeutics Inc., priority 2020, dated 2026)

Key:
[1] = target: T1, HiBit-BRM fusion protein (Homo sapiens, UniProt P51531); test: HiBiT-BRM cell-based degradation assay (Nano-Glo HiBiT Lytic Detection, 24 h); conditions: HeLa cells expressing HiBiT-BRM; for DC50: read-out: BRM HiBit Degradation IC50; for BRM HiBit Degradation Maximum measured: top dose 30 μM
T1 construct: expressed in transfected cells
How it was run: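 HeLa cells stably expressing HiBiT-BRM were dosed with compounds (10-point 3-fold dilutions, 30 μM final top dose, duplicate) for 24 h. HiBiT signal was read by lytic LgBiT complementation luminescence. Percent degradation was normalised to DMSO (high control) and 2 μM of a reference BRM/BRG1 degrader (low control).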

[2] = target: T2, HiBit-BRG1 fusion protein (Homo sapiens, UniProt P51532); test: HiBiT-BRG1 cell-based degradation assay (Nano-Glo HiBiT Lytic Detection, 24 h); conditions: HeLa cells expressing HiBit-BRG1 and LgBit; for DC50: read-out: BRG1 HiBit Degradation IC50; for Dmax: HeLa, top dose 30 μM, read-out: BRG1 HiBit Degradation Maximum measured
T2 construct: expressed in transfected cells
How it was run: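 Stable HeLa line expressing HiBiT-BRG1 and LgBiT, seeded at 5000 cells/well; luminescence read after lytic Nano-Glo HiBiT reagent and 10 min shaking at RT. % degradation normalised between DMSO (high control) and 2 μM reference BRM/BRG1 degrader (low control).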

T1 sequence (P51531 whole entry, the tested form may be a part): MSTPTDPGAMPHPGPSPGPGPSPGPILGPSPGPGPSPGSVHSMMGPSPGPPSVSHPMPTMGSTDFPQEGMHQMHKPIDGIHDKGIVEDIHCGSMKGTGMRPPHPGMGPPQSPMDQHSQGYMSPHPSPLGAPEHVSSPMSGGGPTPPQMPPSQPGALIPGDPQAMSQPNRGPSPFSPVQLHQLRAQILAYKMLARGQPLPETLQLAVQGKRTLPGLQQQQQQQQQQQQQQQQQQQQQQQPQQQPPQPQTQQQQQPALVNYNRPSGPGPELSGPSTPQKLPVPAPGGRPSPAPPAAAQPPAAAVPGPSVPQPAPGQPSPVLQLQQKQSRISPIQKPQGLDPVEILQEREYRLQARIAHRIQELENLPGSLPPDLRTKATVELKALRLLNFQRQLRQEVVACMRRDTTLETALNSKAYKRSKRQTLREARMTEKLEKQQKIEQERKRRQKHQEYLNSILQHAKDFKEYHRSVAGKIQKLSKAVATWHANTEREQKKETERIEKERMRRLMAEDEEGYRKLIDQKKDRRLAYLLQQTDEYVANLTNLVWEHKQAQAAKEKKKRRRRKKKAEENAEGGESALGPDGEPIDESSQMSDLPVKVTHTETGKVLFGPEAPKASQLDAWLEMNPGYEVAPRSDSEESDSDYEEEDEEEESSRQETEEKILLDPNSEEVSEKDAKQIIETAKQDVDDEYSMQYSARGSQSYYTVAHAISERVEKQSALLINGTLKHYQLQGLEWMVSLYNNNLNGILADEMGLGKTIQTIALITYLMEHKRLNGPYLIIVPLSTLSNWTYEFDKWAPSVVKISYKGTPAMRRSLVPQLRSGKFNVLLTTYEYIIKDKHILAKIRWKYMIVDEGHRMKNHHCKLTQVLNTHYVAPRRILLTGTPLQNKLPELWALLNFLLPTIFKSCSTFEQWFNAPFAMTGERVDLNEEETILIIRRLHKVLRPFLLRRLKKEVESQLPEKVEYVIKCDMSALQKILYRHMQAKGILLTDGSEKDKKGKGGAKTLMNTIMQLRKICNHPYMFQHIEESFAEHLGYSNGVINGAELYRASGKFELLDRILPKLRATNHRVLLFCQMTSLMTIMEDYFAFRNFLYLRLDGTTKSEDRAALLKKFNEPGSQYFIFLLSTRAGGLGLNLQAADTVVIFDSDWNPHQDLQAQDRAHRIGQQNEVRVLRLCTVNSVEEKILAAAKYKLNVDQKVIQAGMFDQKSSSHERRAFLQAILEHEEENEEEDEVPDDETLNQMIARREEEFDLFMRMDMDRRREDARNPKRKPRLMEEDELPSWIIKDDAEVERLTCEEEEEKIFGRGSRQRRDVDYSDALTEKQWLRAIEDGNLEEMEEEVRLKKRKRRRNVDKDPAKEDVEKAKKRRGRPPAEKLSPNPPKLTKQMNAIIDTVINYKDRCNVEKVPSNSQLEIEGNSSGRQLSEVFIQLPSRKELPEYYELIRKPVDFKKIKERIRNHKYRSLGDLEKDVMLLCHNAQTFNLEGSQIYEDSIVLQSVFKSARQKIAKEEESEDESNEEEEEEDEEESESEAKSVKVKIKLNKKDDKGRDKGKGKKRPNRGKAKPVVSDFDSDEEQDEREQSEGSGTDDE
T2 sequence (P51532 whole entry, the tested form may be a part): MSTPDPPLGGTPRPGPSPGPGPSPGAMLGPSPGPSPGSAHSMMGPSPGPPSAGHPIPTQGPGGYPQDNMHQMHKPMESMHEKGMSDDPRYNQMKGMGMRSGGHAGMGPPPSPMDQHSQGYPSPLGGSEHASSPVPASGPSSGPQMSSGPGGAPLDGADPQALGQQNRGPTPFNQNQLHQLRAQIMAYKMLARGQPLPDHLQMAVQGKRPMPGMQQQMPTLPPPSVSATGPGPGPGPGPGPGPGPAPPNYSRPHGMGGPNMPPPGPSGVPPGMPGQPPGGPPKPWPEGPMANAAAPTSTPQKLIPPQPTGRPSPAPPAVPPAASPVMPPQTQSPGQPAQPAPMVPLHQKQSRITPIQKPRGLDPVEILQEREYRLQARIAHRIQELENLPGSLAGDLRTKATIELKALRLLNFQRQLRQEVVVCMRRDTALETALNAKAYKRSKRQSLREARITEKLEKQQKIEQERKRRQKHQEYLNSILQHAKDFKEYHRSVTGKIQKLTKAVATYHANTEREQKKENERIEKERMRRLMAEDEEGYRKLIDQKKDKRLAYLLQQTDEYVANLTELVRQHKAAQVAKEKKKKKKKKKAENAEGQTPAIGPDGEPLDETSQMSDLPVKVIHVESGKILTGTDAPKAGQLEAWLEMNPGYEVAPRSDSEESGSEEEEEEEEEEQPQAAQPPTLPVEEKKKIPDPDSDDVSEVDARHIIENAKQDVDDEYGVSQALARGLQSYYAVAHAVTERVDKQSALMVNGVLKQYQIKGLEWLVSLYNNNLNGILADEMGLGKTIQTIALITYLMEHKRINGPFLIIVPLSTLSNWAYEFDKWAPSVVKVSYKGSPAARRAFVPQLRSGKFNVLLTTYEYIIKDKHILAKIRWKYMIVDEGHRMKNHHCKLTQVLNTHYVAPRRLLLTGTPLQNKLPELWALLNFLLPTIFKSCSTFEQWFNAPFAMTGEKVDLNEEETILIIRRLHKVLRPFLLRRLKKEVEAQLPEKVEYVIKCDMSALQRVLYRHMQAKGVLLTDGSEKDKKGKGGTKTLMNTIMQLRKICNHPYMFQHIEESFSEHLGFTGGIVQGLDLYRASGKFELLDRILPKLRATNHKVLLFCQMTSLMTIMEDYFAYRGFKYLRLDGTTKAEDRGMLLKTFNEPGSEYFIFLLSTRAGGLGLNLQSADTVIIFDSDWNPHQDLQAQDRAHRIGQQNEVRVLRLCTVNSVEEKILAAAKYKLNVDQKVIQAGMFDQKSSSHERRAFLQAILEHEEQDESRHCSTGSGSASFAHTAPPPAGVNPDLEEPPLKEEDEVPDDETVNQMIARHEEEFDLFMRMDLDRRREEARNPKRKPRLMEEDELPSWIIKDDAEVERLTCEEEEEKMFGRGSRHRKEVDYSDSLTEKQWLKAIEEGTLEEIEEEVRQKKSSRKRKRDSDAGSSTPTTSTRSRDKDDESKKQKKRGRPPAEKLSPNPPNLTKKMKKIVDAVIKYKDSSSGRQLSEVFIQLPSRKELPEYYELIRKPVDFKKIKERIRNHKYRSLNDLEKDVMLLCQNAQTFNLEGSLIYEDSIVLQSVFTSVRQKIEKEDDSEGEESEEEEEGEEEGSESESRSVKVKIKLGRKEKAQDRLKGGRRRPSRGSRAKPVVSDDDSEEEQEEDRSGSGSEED

Cc1ncsc1-c1ccc(CNC(=O)[C@@H]2C[C@@H](O)CN2C(=O)[C@@H](NC(=O)CCCC(=O)N2CCN(c3cc(-c4cccc(-c5csc(NC(=O)CNC(=O)c6ccn(S(C)(=O)=O)c6)n5)c4)ccn3)CC2)C(C)(C)C)cc1 [Compound 79, N-(2-((4-(3-(2-(4-(5-(((S)-1-((2S,4R)-4-hydroxy-2-((4-(4-methylthiazol-5-yl)benzyl)carbamoyl)pyrrolidin-1-yl)-3,3-dimethyl-1-oxobutan-2-yl)amino)-5-oxopentanoyl)piperazin-1-yl)pyridin-4-yl)phenyl)thiazol-2-yl)amino)-2-oxoethyl)-1-(methylsulfonyl)-1H-pyrrole-3-carboxamide]
DC50 [1]: > 10 µM
BRM HiBit Degradation Maximum measured [1]: C (‘C’ = Maximum degradation <50%)
DC50 [2]: > 10 µM
Dmax [2]: < 50%

CS(=O)(=O)n1ccc(C(=O)NCC(=O)Nc2nc(-c3cccc(-c4ccnc(C5(C(=O)NCCNc6ccc7c(c6)CN(C6CCC(=O)NC6=O)C7=O)CC5)c4)c3)cs2)c1 (centres unmarked) [Compound 167, N-(2-[[2-(2,6-dioxopiperidin-3-yl)-1-oxo-3H-isoindol-5-yl]amino]ethyl)-1-[4-[3-(2-[2-[(1-methanesulfonylpyrrol-3-yl)formamido]acetamido]-1,3-thiazol-4-yl)phenyl]pyridin-2-yl]cyclopropane-1-carboxamide]
DC50 [1]: < 0.1 µM
BRM HiBit Degradation Maximum measured [1]: A (‘A’ = Maximum degradation >75%)
DC50 [2]: < 0.1 µM
Dmax [2]: > 75%

CS(=O)(=O)n1ccc(C(=O)NCC(=O)Nc2nc(-c3cccc(-c4ccn(CC(=O)N5CCC(C6CCN(C(=O)COc7cccc8c7C(=O)N(C7CCC(=O)NC7=O)C8=O)CC6)CC5)n4)c3)cs2)c1 (centres unmarked) [Compound 4, N-[2-[[4-[3-[1-[2-[4-[1-[2-[2-(2,6-dioxo-3-piperidyl)-1,3-dioxoisoindolin-4-yl]oxyacetyl]-4-piperidyl]-1-piperidyl]-2-oxo-ethyl]pyrazol-3-yl]phenyl]thiazol-2-yl]amino]-2-oxo-ethyl]-1-methylsulfonyl-pyrrole-3-carboxamide]
DC50 [1]: > 10 µM
BRM HiBit Degradation Maximum measured [1]: C (‘C’ = Maximum degradation <50%)
DC50 [2]: > 10 µM
Dmax [2]: < 50%

Cc1ncsc1-c1ccc(CNC(=O)[C@@H]2C[C@@H](O)CN2C(=O)[C@@H](NC(=O)CCCCCCCCCC(=O)NCc2cccc(-c3cccc(-c4csc(NC(=O)CNC(=O)c5ccn(S(C)(=O)=O)c5)n4)c3)c2)C(C)(C)C)cc1 [Compound 65, N1-((S)-1-((2S,4R)-4-hydroxy-2-((4-(4-methylthiazol-5-yl)benzyl)carbamoyl)pyrrolidin-1-yl)-3,3-dimethyl-1-oxobutan-2-yl)-N11-((3′-(2-(2-(1-(methylsulfonyl)-1H-pyrrole-3-carboxamido)acetamido)thiazol-4-yl)-[1,1′-biphenyl]-3-yl)methyl)undecanediamide]
DC50 [1]: < 0.1 µM
BRM HiBit Degradation Maximum measured [1]: A (‘A’ = Maximum degradation >75%)
DC50 [2]: < 0.1 µM
Dmax [2]: > 75%

CS(=O)(=O)n1ccc(C(=O)N[C@@H](CCOCCCC(=O)NCCOCCOCCNC(=O)COc2ccc3c(c2)C(=O)N(C2CCC(=O)NC2=O)C3=O)C(=O)Nc2nc(-c3ccccc3)cs2)c1 (stereo partly drawn) [Compound 274, (2S)-4-[3-[(2-[2-[2-(2-[[2-(2,6-dioxopiperidin-3-yl)-1,3-dioxoisoindol-5-yl]oxy]acetamido)ethoxy]ethoxy]ethyl)carbamoyl]propoxy]-2-[(1-methanesulfonylpyrrol-3-yl)formamido]-N-(4-phenyl-1,3-thiazol-2-yl)butanamide]
DC50 [1]: > 10 µM
BRM HiBit Degradation Maximum measured [1]: C (‘C’ = Maximum degradation <50%)
DC50 [2]: > 10 µM
Dmax [2]: < 50%
